According to patent US20250163104A1, “MACROCYCLIC IMMUNOMODULATORS” (priority 2021, published 2025):
Where a SMILES comes first, the peptide text is derived from it. Bridges are numbered along the chain shown (N, C = ends). [ ]: non-standard residue; d: D form. The star is where a group is joined. Phe(4-COOH) = N[C@@H](Cc1ccc(C(=O)O)cc1)C(=O)O; Bip = N[C@@H](Cc1ccc(-c2ccccc2)cc1)C(=O)O; 4Pal = N[C@@H](Cc1ccncc1)C(=O)O; Cit = NC(=O)NCCC[C@H](N)C(=O)O; Carboxymethyl = O=C(O)C*; Nle = CCCC[C@H](N)C(=O)O; Orn = NCCC[C@H](N)C(=O)O; Dab = NCC[C@H](N)C(=O)O; Dap = NC[C@H](N)C(=O)O

target: T1, human PD-1 / PD-L1-Ig binding on Jurkat cell line over-expressing human PD-1 (Jurkat-PD-1) (Homo sapiens, UniProt Q15116); assay: Jurkat-PD-1 Cell Binding High-Content Screening Assay (CBA); type: cell-based; details: Jurkat-PD-1 cells, PE-labeled PD-L1-Ig 20 nM final; read-out: Jurkat HPD1_PDL1 IC50
T1 construct: expressed in transfected cells; host or cells: Jurkat
T1 sequence (Q15116 25-288): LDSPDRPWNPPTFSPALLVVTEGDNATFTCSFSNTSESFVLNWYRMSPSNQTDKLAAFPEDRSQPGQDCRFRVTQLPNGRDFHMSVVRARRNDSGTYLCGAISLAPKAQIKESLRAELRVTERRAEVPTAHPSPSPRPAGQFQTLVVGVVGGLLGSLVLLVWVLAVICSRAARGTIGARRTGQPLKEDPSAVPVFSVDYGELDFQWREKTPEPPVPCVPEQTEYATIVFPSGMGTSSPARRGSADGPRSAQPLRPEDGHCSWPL
In short: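 Binding of fluorescent PD-L1-Ig (phycoerythrin linked via the Ig tag, 20 nM final) to PD-1-overexpressing Jurkat cells was imaged after a 2 h, 37° C compound pretreatment and 1 hour ligand incubation.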

Compound	IC50
CCCC[C@@H]1NC(=O)[C@H](CC(N)=O)NC(=O)[C@@H](CC(C)C)NC(=O)[C@H](CCCN)NC(=O)[C@H](C(C)C)NC(=O)[C@H](Cc2ccc(-c3ccccc3)cc2)NC(=O)[C@H](CC(C)C)NC(=O)[C@H](Cc2c[nH]c3ccccc23)NC(=O)[C@H](CC(=O)O)NC(=O)[C@H](Cc2ccc(O)cc2)NC(=O)[C@H](Cc2ccccc2)NC(=O)CSC[C@@H](C(=O)NCC(N)=O)NC(=O)[C@H](CO)NC(=O)[C@H](C(C)C)NC1=O [Compound 1339] ({CH2CO}-FYDWL[Bip]V[Orn][dL]N[Nle]VSCG-NH2; thioether N-14)	52 nM
CCCC[C@@H]1NC(=O)[C@H](CC(N)=O)NC(=O)[C@@H](CC(C)C)NC(=O)[C@H](CCCN)NC(=O)[C@H](C(C)C)NC(=O)[C@H](Cc2ccc(-c3ccccc3)cc2)NC(=O)[C@H](CC(C)C)NC(=O)[C@H](Cc2c[nH]c3ccccc23)NC(=O)[C@H](CC(=O)O)NC(=O)[C@H](Cc2ccc(C(=O)O)cc2)NC(=O)[C@H](Cc2ccc(OCC(=O)O)cc2)NC(=O)CSC[C@@H](C(=O)NCC(N)=O)NC(=O)[C@H](CO)NC(=O)[C@H](C(C)C)NC1=O [Compound 1340] ({CH2CO}-Y(Carboxymethyl)[Phe(4-COOH)]DWL[Bip]V[Orn][dL]N[Nle]VSCG-NH2; thioether N-14)	21.7 nM
CCCC[C@@H]1NC(=O)[C@H](CC(N)=O)NC(=O)[C@@H](CC(C)C)NC(=O)[C@H](CCCN)NC(=O)[C@H](C(C)C)NC(=O)[C@H](Cc2ccc(-c3ccccc3)cc2)NC(=O)[C@H](CC(C)C)NC(=O)[C@H](Cc2c[nH]c3ccccc23)NC(=O)[C@H](CC(=O)O)NC(=O)[C@H](Cc2ccncc2)NC(=O)[C@H](Cc2ccc(OCC(=O)O)cc2)NC(=O)CSC[C@@H](C(=O)NCC(N)=O)NC(=O)[C@H](CO)NC(=O)[C@H](C(C)C)NC1=O [Compound 1343] ({CH2CO}-Y(Carboxymethyl)[4Pal]DWL[Bip]V[Orn][dL]N[Nle]VSCG-NH2; thioether N-14)	29.9 nM
CC(C)C[C@H]1NC(=O)[C@H](CCCN)NC(=O)[C@H](CCCNC(N)=O)NC(=O)[C@H](Cc2ccc(-c3ccccc3)cc2)NC(=O)[C@H](C(C)C)NC(=O)[C@H](Cc2c[nH]c3ccccc23)NC(=O)[C@H](CC(=O)O)NC(=O)[C@H](Cc2ccc(OCC(=O)O)cc2)NC(=O)[C@H](CN)NC(=O)CSC[C@@H](C(=O)N[C@@H](C)C(N)=O)NC(=O)[C@H]([C@@H](C)O)NC(=O)[C@H](C(C)C)NC(=O)[C@H](Cc2ccccc2)NC(=O)[C@H](CCN)NC1=O [Compound 1344] ({CH2CO}-[Dap]Y(Carboxymethyl)DWV[Bip][Cit][Orn][dL][Dab]FVTCA-NH2; thioether N-14)	31 nM
CC(C)C[C@H]1NC(=O)[C@H](CCCN)NC(=O)[C@H](CCCNC(N)=O)NC(=O)[C@H](Cc2ccc(-c3ccccc3)cc2)NC(=O)[C@H](C(C)C)NC(=O)[C@H](Cc2c[nH]c3ccccc23)NC(=O)[C@H](CC(=O)O)NC(=O)[C@H](Cc2ccc(OCC(=O)O)cc2)NC(=O)[C@H](CN)NC(=O)CSC[C@@H](C(=O)N[C@@H](C)C(N)=O)NC(=O)[C@H]([C@@H](C)O)NC(=O)[C@H](C(C)C)NC(=O)[C@H](Cc2ccncc2)NC(=O)[C@H](CCN)NC1=O [Compound 1345] ({CH2CO}-[Dap]Y(Carboxymethyl)DWV[Bip][Cit][Orn][dL][Dab][4Pal]VTCA-NH2; thioether N-14)	236 nM
CC(C)C[C@H]1NC(=O)[C@H](CCCN)NC(=O)[C@H](CCCNC(N)=O)NC(=O)[C@H](Cc2ccc(-c3ccccc3)cc2)NC(=O)[C@H](C(C)C)NC(=O)[C@H](Cc2c[nH]c3ccccc23)NC(=O)[C@H](CC(=O)O)NC(=O)[C@H](Cc2ccc(OCC(=O)O)cc2)NC(=O)[C@H](CN)NC(=O)CSC[C@@H](C(=O)N[C@@H](C)C(N)=O)NC(=O)[C@H]([C@@H](C)O)NC(=O)[C@H](C(C)C)NC(=O)[C@H](Cc2ccc(O)cc2)NC(=O)[C@H](CCN)NC1=O [Compound 1346] ({CH2CO}-[Dap]Y(Carboxymethyl)DWV[Bip][Cit][Orn][dL][Dab]YVTCA-NH2; thioether N-14)	95.8 nM
